Read-outs that look alike come from different tables or passages of the source.
Key:
EP2 [1] = biological target: T1, EP2 (Homo sapiens (Human), UniProt P43116); assay: EP2 competition binding (Ki), [3H]PGE2; details: EP2, HEK 293 cells
Experimental: Competition binding experiments were performed in a medium containing Hank's balanced salt solution, Hepes 20 mM, pH 7.3, membranes (˜60 μg protein) or 2×10^5 cells from HEK 293 cells stably expressing human EP2 receptors, [^3H]PGE2 (10 nM) and various concentrations of test compounds in a total volume of 300 μl. Reaction mixtures were incubated at 23° C. for 60 min, and were filtered over Whatman GF/B filters under vacuum. Filters were washed three times with 5 ml ice-cold buffer containing 50 mM Tris/HCl (pH 7.3). Non-specific binding was estimated in the presence of excess unlabeled PGE2 (10 μM). Binding data fitted to the binding model for a single class of binding sites, using nonlinear regression analysis.
(§1) HEK-293 cells stably expressing the human or feline FP receptor, or EP1, EP2, or EP4 receptors were washed with TME buffer, scraped from the bottom of the flasks, and homogenized for 30 sec using a Brinkman PT 10/35 polytron. TME buffer was added to achieve a final 40 ml volume in the centrifuge tubes (the composition of TME is 100 mM TRIS base, 20 mM MgCl2, […]; 10N HCl is added to achieve a pH of 7.4).
(§2) The cell homogenate was centrifuged at 19000 r.p.m. for 20 min at 4° C. using a Beckman Ti-60 rotor. The resultant pellet was resuspended in TME buffer to give a final 1 mg/ml protein concentration, as determined by Biorad assay. Radioligand binding competition assays vs. [^3H-]17-phenyl PGF2a (5 nM) were performed in a 100 μl volume for 60 min. Binding reactions were started by adding plasma membrane fraction. The reaction was terminated by the addition of 4 ml ice-cold TRIS-HCl buffer and rapid filtration through glass fiber GF/B filters using a Brandel cell harvester. The filters were washed 3 times with ice-cold buffer and oven dried for one hour.
(§3) [^3H—] PGE2 (specific activity 180 Ci mmol) was used as the radioligand for EP receptors. [^3H] 17-phenyl PGF2a was employed for FP receptor binding studies. Binding studies employing EP1, EP2, EP4 and FP receptors were performed in duplicate in at least three separate experiments. A 200 μl assay volume was used. Incubations were for 60 min at 25° C. and were terminated by the addition of 4 ml of ice-cold 50 mM TRIS-HCl, followed by rapid filtration through Whatman GF/B filters and three additional 4 ml washes in a cell harvester (Brandel). Competition studies were performed using a final concentration of 5 nM [^3H]-PGE2, or 5 nM [^3H] 17-phenyl PGF2a and non-specific binding determined with 10^−5M of unlabeled PGE2, or 17-phenyl PGF2a, according to receptor subtype studied.

EP4 [2] = biological target: T2, EP4 (Homo sapiens (Human), UniProt P35408); assay: EP4 cAMP EC50; assay type: cell-based
EP4 [3] = biological target: T2, EP4; assay: EP4 radioligand binding (Ki), [3H]PGE2; details: EP4, HEK-293 membranes
Experimental: as §1, §2, §3

EP2 [4] = biological target: T1, EP2; assay: EP2 cAMP EC50; assay type: cell-based

T2 sequence (P35408 whole entry): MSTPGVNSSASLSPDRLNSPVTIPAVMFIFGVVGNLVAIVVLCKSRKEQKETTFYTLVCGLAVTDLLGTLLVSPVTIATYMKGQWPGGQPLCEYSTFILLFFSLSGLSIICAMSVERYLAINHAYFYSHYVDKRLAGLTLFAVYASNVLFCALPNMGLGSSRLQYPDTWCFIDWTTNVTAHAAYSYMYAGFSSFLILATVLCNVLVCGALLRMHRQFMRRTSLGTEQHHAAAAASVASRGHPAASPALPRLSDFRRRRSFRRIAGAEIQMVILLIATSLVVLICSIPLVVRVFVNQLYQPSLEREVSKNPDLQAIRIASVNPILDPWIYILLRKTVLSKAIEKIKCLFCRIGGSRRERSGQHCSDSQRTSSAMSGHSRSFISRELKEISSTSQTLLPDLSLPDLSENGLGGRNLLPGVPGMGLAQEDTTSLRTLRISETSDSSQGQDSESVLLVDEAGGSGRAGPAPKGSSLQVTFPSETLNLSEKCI
T1 sequence (P43116 whole entry): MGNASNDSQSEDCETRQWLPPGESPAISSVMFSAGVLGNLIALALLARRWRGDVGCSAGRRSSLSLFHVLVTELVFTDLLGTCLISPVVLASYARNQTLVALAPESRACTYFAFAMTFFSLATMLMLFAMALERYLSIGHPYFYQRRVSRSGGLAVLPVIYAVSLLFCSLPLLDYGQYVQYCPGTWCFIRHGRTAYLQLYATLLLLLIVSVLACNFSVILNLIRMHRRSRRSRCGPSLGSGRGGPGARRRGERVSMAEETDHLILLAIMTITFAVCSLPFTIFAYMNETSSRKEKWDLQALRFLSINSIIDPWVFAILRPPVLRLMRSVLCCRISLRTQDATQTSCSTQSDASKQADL

Compound	Ki (EP2 [1])	EC50 (EP4 [2])	EP4 Ki (EP4 [3]; read-out: EP4 Ki EC50)	EC50 (EP2 [4])	EP4 cAMP EC50 (EP4 [2])	EP4 Ki (EP4 [3])	EP2 Ki (EP2 [1])
COc1cc(/C=C2\CCc3cccc(CCc4ccc(C(=O)O)cc4)c32)cc(OC)c1 [Entry 2]	95 nM	7 nM	42 nM	28 nM			
COc1cc(CC2=CCCc3cccc(CCc4ccc(C(=O)O)cc4)c32)cc(OC)c1 [Entry 3]	116 nM	43 nM	90 nM	130 nM			
COc1ccc(OC)c(CC2=CCc3cccc(CCc4ccc(C(=O)O)cc4)c32)c1 [Entry 4]	61 nM	71 nM	52 nM				
COc1cccc(CC2=CCc3cccc(CCc4ccc(C(=O)O)cc4)c32)c1OC [Entry 6]	53 nM	562 nM	251 nM				
COc1ccc(CC2=CCc3cccc(CCc4ccc(C(=O)O)cc4)c32)cc1OC [Entry 7]	20 nM	33 nM	34 nM	161 nM			
COc1cccc(CCN2Cc3cccc(CCc4ccc(C(=O)O)cc4)c3C2)c1 [Entry 10]					> 10000 nM	> 10000 nM	
COc1cccc(CN2Cc3cccc(CCc4ccc(C(=O)O)cc4)c3C2)c1 [Entry 11]					> 10000 nM		
Cc1cc(C)cc(CC2=CCc3cccc(CCc4ccc(C(=O)O)cc4)c32)c1 [Entry 11]	6 nM	220 nM	240 nM	13 nM			
COc1cc(CC2CCc3cccc(OCc4ccc(C(=O)O)cc4)c32)cc(OC)c1 (stereo not shown) [Entry 13]	469 nM	16 nM	154 nM				
COc1cc(CN2CCc3cccc(CCc4ccc(C(=O)O)s4)c32)cc(OC)c1 [Entry 13]	47 nM		161 nM				
COc1cc(/C=C2\CCc3cccc(OCc4ccc(C(=O)O)cc4)c32)cc(OC)c1 [Entry 14]			1490 nM		> 10000 nM		> 10000 nM
COc1cc(CC2=CCc3cccc(CCc4ccc(C(=O)O)cc4)c32)cc(OC)c1 [Entry 15]	3 nM	1 nM	0.8 nM	11 nM			
COc1cc(CC2=CCc3ccc(OC)c(CCc4ccc(C(=O)O)cc4)c32)cc(OC)c1 [Entry 16]	1700 nM		469 nM				
COc1cc(CC2=CCc3cc(F)cc(CCc4ccc(C(=O)O)cc4)c32)cc(OC)c1 [Entry 19]	18 nM	2 nM	0.4 nM	36 nM			
COc1cc(OC)cc(S(=O)(=O)N2CCc3cccc(CCc4ccc(C(=O)O)cc4)c32)c1 [Entry 19]	776 nM		8230 nM		> 10000 nM		
COc1cc(CC2=CCc3cccc(-c4cccc(/C=C/C(=O)O)c4)c32)cc(OC)c1 [Entry 20]			1230 nM				> 10000 nM
COc1cccc(S(=O)(=O)N2CCc3cccc(CCc4ccc(C(=O)O)cc4)c32)c1 [Entry 20]					> 10000 nM	> 10000 nM	
COc1cc(CC2=CCc3cccc(/C=C/c4ccc(C(=O)O)cc4)c32)cc(OC)c1 [Entry 21]	4770 nM		1200 nM		> 10000 nM		
COc1cc(CC2=CCc3cccc(-c4cccc(OCC(=O)O)c4)c32)cc(OC)c1 [Entry 22]			1170 nM				> 10000 nM
COc1cc(CC2=CCc3cccc(C#Cc4ccc(C(=O)O)cc4)c32)cc(OC)c1 [Entry 24]			3600 nM		> 10000 nM		> 10000 nM

More lines, now with the values ahead:

Ki (EP2 [1])	EC50 (EP4 [2])	EP4 Ki (EP4 [3]; read-out: EP4 Ki EC50)	EC50 (EP2 [4])	EP4 cAMP EC50 (EP4 [2])	EP4 Ki (EP4 [3])	EP2 Ki (EP2 [1])	Compound
2 nM	7.2 nM	3 nM					COc1cc(CC2CCc3cccc(CCc4ccc(C(=O)O)cc4)c32)cc(OC)c1 (stereo not shown) [Entry 1]
		174 nM					O=C(O)c1ccc(CCc2cccc3c2N(Cc2ccc4ccccc4c2)CC3)cc1 [Entry 6]
		5850 nM					O=C(O)c1ccc(CCc2cccc3c2N(Cc2cc(OCc4ccccc4)cc(OCc4ccccc4)c2)CC3)cc1 [Entry 7]
67 nM	107 nM	71 nM	57 nM				COc1ccccc1CC1=CCc2cccc(CCc3ccc(C(=O)O)cc3)c21 [Entry 8]
		453 nM					O=C(O)c1ccc(CCc2cccc3c2N(Cc2ccc4c(c2)OCO4)CC3)cc1 [Entry 8]
		453 nM					COc1cc(CN2CCCc3cccc(CCc4ccc(C(=O)O)cc4)c32)cc(OC)c1 [Entry 9]
27 nM	93 nM	195 nM	114 nM				COc1ccc(CC2=CCc3cccc(CCc4ccc(C(=O)O)cc4)c32)cc1 [Entry 9]
18 nM	23 nM	56 nM	2 nM				O=C(O)c1ccc(CCc2cccc3c2C(Cc2cc(Cl)cc(Cl)c2)=CC3)cc1 [Entry 10]
83 nM	41 nM	52 nM	25 nM				COc1cc(CC2=CCc3c(F)ccc(CCc4ccc(C(=O)O)cc4)c32)cc(OC)c1 [Entry 12]
	3130 nM						COc1cccc(Cn2ccc3cccc(CCc4ccc(C(=O)O)cc4)c32)c1 [Entry 15]
				> 10000 nM		> 10000 nM	COc1cccc(CC(=O)N2CCc3cccc(CCc4ccc(C(=O)O)cc4)c32)c1 [Entry 17]
8 nM	296 nM	736 nM					O=C(O)c1ccc(CCc2cccc3c2C(Cc2cc(C(F)(F)F)cc(C(F)(F)F)c2)=CC3)cc1 [Entry 17]
27 nM	57 nM	134 nM	6 nM				O=C(O)c1ccc(CCc2cccc3c2C(Cc2cc(F)cc(F)c2)=CC3)cc1 [Entry 18]
		4470 nM		> 10000 nM		> 10000 nM	COc1cc(CC2=CCc3cccc(-c4ccc(OCC(=O)O)cc4)c32)cc(OC)c1 [Entry 23]

From patent US9546162B2, “Compounds and methods for skin repair” (Allergan, Inc., priority 2013, dated 2017)
